Tests used:
Parameters in all cases: key: “+” indicates that the compound exibits inhibitory activity; “−” indicates that low or no inhibitory activity was observed
A549 cells [1] = assay: Cell proliferation assay, photographic image analysis of proliferation, apoptosis and death (PAD assay), A549; format: cell-based; settings: 6 concentrations tested
Summary of the method: (§1)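 Cells grown in RPMI with 5% FBS (2,000/well) and dosed 24 h after plating with 6.3-fold dilutions in duplicate (master plate 500× final, top 10 mM stock). After 48 h at 37 °C, cells formamide-fixed and DAPI-stained. Image analysis counted live, apoptotic and dead cells.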

HeLa cells [2] = assay: Non-photographic proliferation analysis (Promega Cell titer Aqueous), HeLa; format: cell-based; settings: 6 concentrations tested
Protocol: (§2) A549 (ATCC# CCL-185), HeLa (ATCC# CCL-2), HCT116 (ATCC# CCL-247), and H1299 (ATCC# CRL-5803) cells were maintained in T175 flasks following the ATCC recommended media and handling procedures. Flasks reaching approximately 70% confluency were trypsinized and resuspended in RPMI media (Cell-Gro catalog number 10-040-CM) modified to contain 5% FBS, 100 ug/mlPen/Strep (Cell-Gro catalog number 30-002-CL), and 0.3 mg/ml L-Glutamine (Cell-Gro catalog number 25-003-CL). A 20,000 cells/ml solution was made for plating. Cells were plated in black Packard 96 well plates by placing 100 μl per well (2,000 cells per well).
(§3) Compounds and additional media were added 24 hours after cell plating. A compound master plate was created with concentrations 500 times greater than the final concentration added to the cells. All compound testing was done in duplicate using 6.3 fold dilutions starting with 10 mM. All outside wells (and 4 internal wells) were DMSO controls. Taxol and at least one additional control were run on all plates. Three microliters of the compound master plate were added to deep well blocks containing 750 μl of RPMI media. One hundred microliters were transferred from the compound/media deep well blocks to the plated cells resulting in a 500 fold dilution of the compounds. Cells were grown at 37° C., 5% CO2 for 48 hours.
(§4) Some cell plates were treated with Promega Cell titer Aqueous 1 kit (promega—VWR catalog number G3580). In this case, 48 hours after the test compound were added, 100 μl of media were removed and 20 μl of cell titer reagent were added to all wells. Plates were incubated at 37° C. for 45 minutes prior to absorbance reads on the Wallac plate reader at 490 nm for 0.1 sec/well.

A549 cells [3] = assay: Non-photographic proliferation analysis (Promega Cell titer Aqueous), A549; format: cell-based; settings: 6 concentrations tested
Protocol: as §2, §3, §4

MDM2 / p53 substrate = MDM2 / p53 substrate (Homo sapiens, UniProt Q00987); assay: Plate-based MDM2 substrate ligation assay (MDM2-P53-FLAG); format: biochemical; settings: 8 concentrations tested
Sequence of MDM2 / p53 substrate (Q00987 whole entry): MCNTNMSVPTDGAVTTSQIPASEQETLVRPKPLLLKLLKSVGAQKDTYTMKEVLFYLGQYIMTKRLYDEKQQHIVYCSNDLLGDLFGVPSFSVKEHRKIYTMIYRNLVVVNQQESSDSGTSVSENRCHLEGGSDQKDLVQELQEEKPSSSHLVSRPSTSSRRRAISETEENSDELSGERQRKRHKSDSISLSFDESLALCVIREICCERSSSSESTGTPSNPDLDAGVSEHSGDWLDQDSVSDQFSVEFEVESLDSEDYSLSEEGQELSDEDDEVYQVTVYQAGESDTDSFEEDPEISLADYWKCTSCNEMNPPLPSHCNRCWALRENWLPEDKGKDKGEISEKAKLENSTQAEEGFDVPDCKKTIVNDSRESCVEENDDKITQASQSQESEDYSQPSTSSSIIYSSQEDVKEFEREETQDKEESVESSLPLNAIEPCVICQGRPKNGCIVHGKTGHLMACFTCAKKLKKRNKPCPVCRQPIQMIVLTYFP
Excerpt: This assay was preformed essentially as described in WO 03/076899 (page 77, line 5 to page 80, line 13), hereby incorporated by reference in its entirety.

[4] = molecular target: E3 (His-APC11/APC2-"APC") (Homo sapiens, UniProt Q9NYG5+Q9UJX6); assay: Plate-based E3 ligase assay (APC FLAG), auto-ubiquitination; format: biochemical; settings: 8 concentrations tested
Sequence of E3 (His-APC11/APC2-"APC") (Q9NYG5 whole entry): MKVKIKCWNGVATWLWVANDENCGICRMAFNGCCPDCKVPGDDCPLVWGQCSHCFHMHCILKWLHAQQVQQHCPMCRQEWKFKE
Sequence of E3 (His-APC11/APC2-"APC") (Q9UJX6 whole entry): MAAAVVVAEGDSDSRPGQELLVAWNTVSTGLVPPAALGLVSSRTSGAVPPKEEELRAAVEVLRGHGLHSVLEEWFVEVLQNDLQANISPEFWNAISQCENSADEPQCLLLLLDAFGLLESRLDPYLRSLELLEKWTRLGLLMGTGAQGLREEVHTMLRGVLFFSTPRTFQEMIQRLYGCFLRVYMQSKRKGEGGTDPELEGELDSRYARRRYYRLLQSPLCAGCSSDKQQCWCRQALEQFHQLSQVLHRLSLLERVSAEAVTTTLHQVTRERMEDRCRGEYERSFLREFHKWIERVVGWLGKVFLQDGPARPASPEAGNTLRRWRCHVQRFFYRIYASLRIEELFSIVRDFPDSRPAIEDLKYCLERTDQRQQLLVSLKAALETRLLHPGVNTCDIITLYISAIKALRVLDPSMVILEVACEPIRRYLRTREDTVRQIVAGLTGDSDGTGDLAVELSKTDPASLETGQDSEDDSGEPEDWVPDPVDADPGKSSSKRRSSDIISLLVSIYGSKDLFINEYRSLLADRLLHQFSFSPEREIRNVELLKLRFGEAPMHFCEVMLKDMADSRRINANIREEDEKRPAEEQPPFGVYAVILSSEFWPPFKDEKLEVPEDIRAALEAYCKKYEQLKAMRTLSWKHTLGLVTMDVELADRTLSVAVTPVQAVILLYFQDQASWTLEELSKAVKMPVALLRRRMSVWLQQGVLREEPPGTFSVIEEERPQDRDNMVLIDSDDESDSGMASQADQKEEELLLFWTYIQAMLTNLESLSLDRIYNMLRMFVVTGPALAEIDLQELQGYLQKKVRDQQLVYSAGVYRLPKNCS
Summary of the method: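 His-APC11/APC2 auto-ubiquitination was run in casein-blocked nickel plates for 1 h at room temperature, with E1 at 5 ng/well, UbcH5c at 20 ng/well and APC at 100 ng/well. Buffer was 62.5 mM Tris pH 7.6, 3 mM MgCl2, 1 mM DTT, 2.5 mM ATP and Flag-ubiquitin at 100 ng/well. Detection used anti-Flag/HRP chemiluminescence, and IC50 was typically from 6 or 8 concentrations versus a DMSO control.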

HeLa cells [5] = assay: Cell proliferation assay, photographic image analysis of proliferation, apoptosis and death (PAD assay), HeLa; format: cell-based; settings: 6 concentrations tested
Summary of the method: as §1

HCT116 cells [6] = assay: Non-photographic proliferation analysis (Promega Cell titer Aqueous), HCT116; format: cell-based; settings: 6 concentrations tested
Protocol: as §2, §3, §4

H1299 cells = assay: Cell proliferation assay, photographic image analysis of proliferation, apoptosis and death (PAD assay), H1299; format: cell-based; settings: 6 concentrations tested
Protocol: as §2, §3
(§5) Cells to be analyzed by photography were fixed and stained. One hundred microliters of media were removed and 100 μl of 9.3% […] was added to each well. Plates were left on the benchtop for 45 minutes. A staining solution containing 1.55 μl of 1 mg/ml DAPI added to 18.75 ml PBS was warmed for 15 minutes at 37° C. The cells were aspirated prior to washing with 100 μl of PBS. Seventy microliters of PBS were aspirated and 170 μl of the DAPI solution were added to each well of fixed cells. Plates were left at room temperature for one hour then aspirated and washed twice with 100 μl of PBS. The stained cells were left at 4° C. for a minimum of 16 hours before photographic analysis with Array Scan II (Cellomics). Analysis of the photographic images to determine numbers of live cells (proliferation), apoptotic cells and dead cells, were according to the methods described in U.S. Provisional Patent Application Ser. No. 60/406,714, which incorporated herein in its entirety.

HCT116 cells [7] = assay: Cell proliferation assay, photographic image analysis of proliferation, apoptosis and death (PAD assay), HCT116; format: cell-based; settings: 6 concentrations tested
Protocol: as §2, §3, §5

Row | SMILES | MDM2-P53 Flag 8 pt (MDM2 / p53 substrate) | APC Flag 8 pt [4] | PAD Assay, A549 6 pt (A549 cells [1]) | Cell Titer-Aqueous, HELA 6 pt (HeLa cells [2]) | Cell Titer-Aqueous, A549 6 pt (A549 cells [3]) | PAD Assay, HELA 6 pt (HeLa cells [5]) | Cell Titer-Aqueous, HCT116 6 pt (HCT116 cells [6]) | PAD Assay, H1299 6 pt (H1299 cells) | PAD Assay, HCT116 6 pt (HCT116 cells [7])
1 | O=C(NCC1CC1)c1ccccc1NS(=O)(=O)c1cc(Cl)c(Oc2ccc([N+](=O)[O-])cc2Cl)c(Cl)c1 [Example 123, N-(cyclopropylmethyl)-2-({[3,5-dichloro-4-(2-chloro-4-nitrophenoxy)phenyl]sulfonyl}amino)benzamide] | − | + | + | + | + | + | + |  | 
2 | CS/C(=N\S(=O)(=O)c1cc(Cl)c(Oc2ccc([N+](=O)[O-])cc2Cl)c(Cl)c1)Nc1ccc(Cl)cc1 [Example 149, methyl N-(4-chlorophenyl)-N′-{[3,5-dichloro-4-(2-chloro-4-nitrophenoxy)phenyl]sulfonyl} imidothiocarbamate] |  | + | + | + | + | + | + |  | 
3 | O=[N+]([O-])c1ccc(Oc2ccc(S(=O)(=O)Nc3cc(C(F)(F)F)ccc3Cl)cc2Cl)c(C(F)(F)F)c1 [Compound 264] |  | + | + |  |  | + |  | + | 
4 | O=[N+]([O-])c1ccc(Oc2c(Cl)cc(S(=O)(=O)Nc3cccc(Cl)c3)cc2Cl)c(Cl)c1 [Compound 154, 3,5-dichloro-4-(2-chloro-4-nitrophenoxy)-N-(3-chlorophenyl)benzenesulfonamide] |  | + | − | + | + | − | − |  | −
5 | O=[N+]([O-])c1ccc(Oc2c(Cl)cc(S(=O)(=O)Nc3cc(Cl)cc(Cl)c3)cc2Cl)c(Cl)c1 [Example 24, 3,5-dichloro-4-(2-chloro-4-nitrophenoxy)-N-(3,5-dichlorophenyl)benzenesulfonamide] | + | + | − |  |  |  |  |  | 

The next lines start with results.

Row | MDM2-P53 Flag 8 pt (MDM2 / p53 substrate) | APC Flag 8 pt [4] | SMILES | PAD Assay, A549 6 pt (A549 cells [1]) | Cell Titer-Aqueous, HELA 6 pt (HeLa cells [2]) | Cell Titer-Aqueous, A549 6 pt (A549 cells [3]) | PAD Assay, HELA 6 pt (HeLa cells [5]) | Cell Titer-Aqueous, HCT116 6 pt (HCT116 cells [6]) | PAD Assay, H1299 6 pt (H1299 cells) | PAD Assay, HCT116 6 pt (HCT116 cells [7])
6 | − | + | O=[N+]([O-])c1ccc(Oc2c(Cl)cc(S(=O)(=O)Nc3ccc(F)cc3)cc2Cl)c(Cl)c1 [Example 23, 3,5-dichloro-4-(2-chloro-4-nitrophenoxy)-N-(4-fluorophenyl)benzenesulfonamide] | + | + | + | + | + |  | 
7 |  | + | O=[N+]([O-])c1ccc(Oc2c(Cl)cc(S(=O)(=O)Nc3cc(F)ccc3C(F)(F)F)cc2Cl)c(Cl)c1 [Example 235, 3,5-dichloro-4-(2-chloro-4-nitrophenoxy)-N-[5-fluoro-2-(trifluoromethyl)phenyl] benzenesulfonamide] | + |  |  | + |  | + | 
8 |  | + | Cc1c(Cl)cccc1NS(=O)(=O)c1cc(Cl)c(Oc2ccc([N+](=O)[O-])cc2Cl)c(Cl)c1 [Example 147, 3,5-dichloro-N-(3-chloro-2-methylphenyl)-4-(2-chloro-4-nitrophenoxy)benzene-sulfonamide] | + | + | + | + | + |  | 
9 |  | + | O=S(=O)(Nc1cc(Cl)ccc1C(F)(F)F)c1cc(Cl)c(Oc2ccc(Cl)cc2Cl)c(Cl)c1 [Compound 249, 3,5-dichloro-N-[5-chloro-2-(trifluoromethyl)phenyl]-4-(2,4-dichlorophenoxy) benzenesulfonamide] | + |  |  | + |  | + | 
10 | − |  | O=[N+]([O-])c1ccc(Oc2c(Cl)cc(S(=O)(=O)Nc3cccc(C(F)(F)F)c3)cc2Cl)c(Cl)c1 [Example 7, 3,5-dichloro-4-(2-chloro-4-nitrophenoxy)-N-[3-(trifluoromethyl)phenyl]benzene-sulfonamide] |  |  |  |  |  |  | 

— US7915293B2, “Ubiquitin ligase inhibitors” (Rigel Pharmaceuticals, Inc., priority 2003, dated 2011)
